Data published in ChEMBL document CHEMBL1139897, “Design of potent PPARalpha agonists” (Bioorg Med Chem Lett, 2007).

Tests used:
[1] = biological target: T1, Peroxisome proliferator-activated receptor alpha (Homo sapiens, UniProt Q07869); assay: Agonist activity at human PPARalpha by transactivation assay; format: functional
T1 sequence (Q07869 whole entry): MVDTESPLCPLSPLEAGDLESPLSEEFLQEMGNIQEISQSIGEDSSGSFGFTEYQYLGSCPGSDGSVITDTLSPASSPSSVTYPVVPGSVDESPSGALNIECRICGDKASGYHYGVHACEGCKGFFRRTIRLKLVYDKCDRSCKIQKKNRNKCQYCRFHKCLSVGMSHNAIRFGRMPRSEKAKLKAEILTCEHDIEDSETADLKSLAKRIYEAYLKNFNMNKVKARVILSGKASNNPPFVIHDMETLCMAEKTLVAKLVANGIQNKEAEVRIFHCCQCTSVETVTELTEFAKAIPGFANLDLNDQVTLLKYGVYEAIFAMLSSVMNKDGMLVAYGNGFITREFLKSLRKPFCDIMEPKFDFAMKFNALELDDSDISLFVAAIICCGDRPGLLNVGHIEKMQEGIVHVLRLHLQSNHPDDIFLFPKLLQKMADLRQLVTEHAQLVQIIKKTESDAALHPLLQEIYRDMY

[2] = biological target: T2, Peroxisome proliferator-activated receptor alpha (Homo sapiens) (UniProt Q07869); assay: Agonist activity at human PPARalpha by transactivation assay relative to WY-14643; format: functional
T2 sequence (whole entry): T1 sequence (Q07869 whole entry)

[3] = biological target: T3, Peroxisome proliferator-activated receptor gamma (Homo sapiens, UniProt P37231)
T3 sequence (P37231 whole entry): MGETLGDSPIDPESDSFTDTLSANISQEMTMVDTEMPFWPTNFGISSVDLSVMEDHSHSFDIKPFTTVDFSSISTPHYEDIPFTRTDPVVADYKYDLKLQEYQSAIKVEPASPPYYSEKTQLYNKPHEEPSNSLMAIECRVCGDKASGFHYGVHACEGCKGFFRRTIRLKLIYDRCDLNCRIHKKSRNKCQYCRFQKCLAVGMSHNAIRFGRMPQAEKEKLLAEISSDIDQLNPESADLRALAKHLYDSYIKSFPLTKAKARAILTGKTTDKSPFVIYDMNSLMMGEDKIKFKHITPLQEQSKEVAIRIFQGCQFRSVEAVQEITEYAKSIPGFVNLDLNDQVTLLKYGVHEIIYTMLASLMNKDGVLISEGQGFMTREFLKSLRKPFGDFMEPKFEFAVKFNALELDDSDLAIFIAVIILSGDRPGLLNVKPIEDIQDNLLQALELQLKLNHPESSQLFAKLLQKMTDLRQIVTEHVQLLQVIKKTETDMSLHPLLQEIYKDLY
Description: Agonist activity at human PPARgamma by transactivation assay

[4] = biological target: T4, Peroxisome proliferator-activated receptor delta (Homo sapiens, UniProt Q03181); assay: Agonist activity at human PPARdelta by transactivation assay; format: functional
T4 sequence (Q03181 whole entry): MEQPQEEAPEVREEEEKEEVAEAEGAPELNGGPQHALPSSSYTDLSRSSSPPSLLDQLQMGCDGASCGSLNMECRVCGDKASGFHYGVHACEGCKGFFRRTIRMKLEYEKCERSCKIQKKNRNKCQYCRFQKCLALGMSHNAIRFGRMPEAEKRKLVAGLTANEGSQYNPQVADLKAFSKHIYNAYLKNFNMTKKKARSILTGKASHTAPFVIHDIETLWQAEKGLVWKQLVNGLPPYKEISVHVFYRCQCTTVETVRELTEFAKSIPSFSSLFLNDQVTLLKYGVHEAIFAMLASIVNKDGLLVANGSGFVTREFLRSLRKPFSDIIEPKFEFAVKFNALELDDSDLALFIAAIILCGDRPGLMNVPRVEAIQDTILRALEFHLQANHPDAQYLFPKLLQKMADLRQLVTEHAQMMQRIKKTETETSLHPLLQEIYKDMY

[5] = Half life in rat at 2.5 mg/kg, po; format: ADME, organism-based; design: dose 2.5 mg/kg, route oral; settings: in vivo
[6] = Cmax in rat at 2.5 mg/kg, po; format: ADME, organism-based; design: dose 2.5 mg/kg, route oral; settings: in vivo
[7] = Oral bioavailability in rat at 2.5 mg/kg; format: ADME, organism-based; settings: in vivo

Compound | EC50 [1] | Activity [2] | EC50 [3] | EC50 [4] | half-life [5] | Cmax [6] | bioavailability [7]
CCO[C@@H](Cc1ccc(OC/C=C/c2cc(C(F)(F)F)cc(C(F)(F)F)c2)cc1)C(=O)O | 20 nM | 195% | 400 nM | 1400 nM |  |  | 
CCO[C@@H](Cc1ccc(OC/C=C(\C)c2ccc(-c3ccccc3)cc2)cc1)C(=O)O | 500 nM | 158% |  |  |  |  | 
CCO[C@@H](Cc1ccc(OC/C=C/c2cc(OCC(F)(F)F)cc(OCC(F)(F)F)c2)cc1)C(=O)O | 2 nM | 149% | 800 nM | 4000 nM |  |  | 
CCO[C@@H](Cc1ccc(OC/C=C/c2cc(-c3ccccc3)cc(-c3ccccc3)c2)cc1)C(=O)O | 20 nM | 30% | 200 nM | 4000 nM |  |  | 
CCOc1cc(/C=C/COc2ccc(C[C@H](OCC)C(=O)O)cc2)cc(OCC)c1 | 20 nM | 197% | 200 nM | 7900 nM | 2.17 h | 6160 ng/mL | 86%
CCO[C@@H](Cc1ccc(OC/C=C/c2cc(-c3ccc(C(C)(C)C)cc3)cc(-c3ccc(C(C)(C)C)cc3)c2)cc1)C(=O)O | 14000 nM | 110% | 1000 nM |  |  |  | 
CCO[C@@H](Cc1ccc(OC/C=C/c2cc(OC(C)C)cc(OC(C)C)c2)cc1)C(=O)O | 4 nM | 207% | 80 nM | 6000 nM | 2.42 h | 1840 ng/mL | 95%
CCO[C@@H](Cc1ccc(OC/C=C/c2cc(OC3CCCC3)cc(OC3CCCC3)c2)cc1)C(=O)O | 20 nM | 135% | 300 nM | 15000 nM |  |  | 
CCO[C@@H](Cc1ccc(OC/C=C/c2cc(OC(=O)c3ccccc3)cc(OC(=O)c3ccccc3)c2)cc1)C(=O)O | 50 nM | 121% | 190 nM |  |  |  | 
CCO[C@@H](Cc1ccc(OC/C=C/c2cc(OC)cc(OC)c2)cc1)C(=O)O |  | 186% |  | 13000 nM |  |  | 

Second part, led by results:

EC50 [1] | Activity [2] | EC50 [3] | EC50 [4] | Compound | half-life [5] | Cmax [6] | bioavailability [7]
30 nM | 118% | 5100 nM |  | CCO[C@@H](Cc1ccc(OC/C=C/c2cc(CCc3ccccc3)cc(CCc3ccccc3)c2)cc1)C(=O)O |  |  | 
500 nM | 108% | 3100 nM |  | CCO[C@@H](Cc1ccc(OC/C=C/c2cc(C#Cc3ccccc3)cc(C#Cc3ccccc3)c2)cc1)C(=O)O |  |  | 
300 nM | 121% | 4100 nM | 20000 nM | CCO[C@@H](Cc1ccc(OC/C=C/c2cc(Br)cc(Br)c2)cc1)C(=O)O |  |  | 
1600 nM | 169% | 8000 nM | 18000 nM | CCO[C@@H](Cc1ccc(OC/C=C/c2ccccc2)cc1)C(=O)O |  |  | 
90 nM | 66% | 3000 nM |  | CCO[C@@H](Cc1ccc(OC/C=C/c2cc(/C=C/c3ccccc3)cc(/C=C/c3ccccc3)c2)cc1)C(=O)O |  |  | 
